Assay results: patent publication US11413278B2, “Compounds and methods for promoting stress resistance” (priority 2015, dated 2022)
Entries after “also recorded” stand apart in the source; their conditions may differ.

Legend:
WI-38 cells = conditions: for Percentage of propidium iodide-positive dead cells (no H2O2 stress treatment), at 10 uM: negative control 0.41% ± 0.23%; for PI cell-death imaging without H2O2 (indicating potential toxicity): Assay 8(k), without H2O2, at 10 uM; for PI-positive dead cells under normal conditions: WI-38, no H2O2, control 0.4±0.2%
Protocol: WI-38 cells were seeded on 384-well plates for 24 hrs and then incubated with small molecules for 24 hrs. […] Images were collected on an INCell Analyzer 2000 (GE) and analyzed with the Developer software.

FOXO3 = FOXO3 siRNA knockdown: dependency for H2O2-resistance; assay type: cell-based, human; conditions: for FOXO3-dependency for H2O2-resistance (experiment 3): with & without H2O2, FOXO3 knockdown in WI-38 cells; for Requirement of FOXO3 to promote H2O2-resistance: FOXO3 siRNA, at least 2 of 3 independent experiments
NRF2 = experiment: in vitro; assay type: cell-based, human; conditions: for NRF2-dependency for H2O2-resistance, at 10 uM (experiment 3) - with & without H2O2 / NRF2-dependency for H2O2-resistance (experiment 3) / NRF2-dependency for H2O2-resistance, at 10 uM - with H2O2, 1st experiment / NRF2-dependency for H2O2-resistance, 1st experiment / NRF2-dependency for H2O2-resistance, at 10 uM - with H2O2, 2nd experiment / NRF2-dependency for H2O2-resistance, 2nd experiment / Assay 17: NRF2-dependency for H2O2-resistance: 10 uM; for NRF2-dependency for H2O2-resistance (experiment 3): with & without H2O2, NRF2 knockdown in WI-38 cells; for NRF2-dependency for H2O2-resistance (experiment 3) / NRF2-dependency for H2O2-resistance, 1st experiment / NRF2-dependency for H2O2-resistance, 2nd experiment: YES = resistance reduced by at least 50%, partial = 25% to 50%; for NRF2-dependency of H2O2-resistance (NRF2 siRNA knockdown): at least 2 of 3 independent experiments; for NRF2-dependency for H2O2-resistance, at 10 uM - with H2O2, 1st experiment: experiment 1 (1st); for NRF2-dependency for H2O2-resistance, 1st experiment / NRF2-dependency for H2O2-resistance, 2nd experiment: with H2O2, NRF2 knockdown in WI-38 cells; for NRF2-dependency for H2O2-resistance, at 10 uM - with H2O2, 2nd experiment: experiment 2 (2nd); for Assay 17: NRF2-dependency for H2O2-resistance: YES/NO
mTOR = mTOR inhibition (RPS6 phosphorylation status), In-Cell Western; assay type: cell-based, human; conditions: for Exp. 1, normalized reduction in p-RPS6/RPS6 ratio / Exp. 3, normalized reduction in p-RPS6/RPS6 ratio: n=4
In short: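 WI-38 cells exposed to compounds at 5, 10 and 20 μM for 24 hrs. Fixed cells co-stained overnight at 4° C with anti-RPS and anti-pRPS6 (Ser-235/236) antibodies, then DyLight 680/800 secondaries. Phospho-RPS6 relative to total RPS6 read by near-infrared In-Cell Western imaging.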

[1] = 10 uM, YES = resistance reduced by at least 50%, partial = 25% to 50%

Row | Compound | Percentage of propidium iodide-positive dead cells (no H2O2 stress treatment), at 10 uM (WI-38 cells) | I = FOXO3-dependency for H2O2-resistance (FOXO3; score) | I = FOXO3-dependency for H2O2-resistance (FOXO3; summary score) | J = NRF2-dependency for H2O2-resistance (NRF2; score) | J = NRF2-dependency for H2O2-resistance (NRF2; summary score) | G = mTOR down-regulation (mTOR; 2-point score) | G = mTOR down-regulation (mTOR; summary score) | NRF2-dependency of H2O2-resistance (NRF2 siRNA knockdown) (NRF2) | PI cell-death imaging without H2O2 (indicating potential toxicity) (WI-38 cells) | PI-positive dead cells under normal conditions (WI-38 cells) | NRF2-dependency for H2O2-resistance, at 10 uM - with H2O2, 1st experiment (NRF2) | NRF2-dependency for H2O2-resistance, 1st experiment (NRF2) | other results
1 | CC1C(=O)C(C)C(c2cc(Cl)ccc2O)NC1c1cc(Cl)ccc1O (stereo not shown) [O6] | 0.36% ± 0.10%, | 0 | 0 | 0 | 0 | 0 | 0 |  |  |  |  |  | 
2 | O=C(/C(=C/c1ccc(Cl)cc1)c1nc2ccccc2[nH]1)c1ccccc1 [Gr-4D] | 0.42% ± 0.15%, | 0 | 0 | 0 | 0 | 0 | 0 | partially dependent on NRF2 |  |  |  |  | FOXO3-dependency for H2O2-resistance, at 10 uM (experiment 3) - with & without H2O2 (FOXO3; 10 uM): Partial; FOXO3-dependency for H2O2-resistance (experiment 3) (FOXO3; [1]): Partial; Requirement of FOXO3 to promote H2O2-resistance (FOXO3): not FOXO3; NRF2-dependency for H2O2-resistance, at 10 uM (experiment 3) - with & without H2O2 (NRF2): Partial; NRF2-dependency for H2O2-resistance (experiment 3) (NRF2): Partial
3 | Cc1ccc(S(=O)(=O)Nc2cccc3cccnc23)cc1 [Gr-3B] | 0.47% ± 0.20%, | 0 | 0 | 0 | 0 | 0 | 0 |  |  |  |  |  | 
4 | O=C(c1ccc([N+](=O)[O-])o1)N1CCc2ccccc21 [O13] | 0.69% ± 0.12%, | 0 | 0 | 0 | 0 | 0 | 0 |  |  |  |  |  | 
5 | O=C(Nc1ccc(Cl)c(Cl)c1)c1ccc([N+](=O)[O-])o1 [Gr-1G] |  | 0 | 0 | 0 | 0 | 0 | 0 |  | YES | 7.1%±1.1% | 1st, YES; | YES; | 
6 | O=C(NCc1cccnc1)/C(=C\c1ccc(Br)cc1)S(=O)(=O)c1ccccc1 [Gr-7B] |  | 0 | 0 | 1 | 1 | 2 | 2 | significantly attenuate | YES | 3.6%±0.7% | 1st, partial; | partial; | NRF2-dependency for H2O2-resistance, at 10 uM - with H2O2, 2nd experiment (NRF2): 2nd, partial.; NRF2-dependency for H2O2-resistance, 2nd experiment (NRF2): partial.; Assay 17: NRF2-dependency for H2O2-resistance (NRF2): YES; mTOR down-regulation by p-RPS6 assays (mTOR; Assay 14(q), at 5 uM, 10 uM & 20 uM): YES; Exp. 1, normalized reduction in p-RPS6/RPS6 ratio (mTOR; Exp. 1, In-Cell Western): ~67% (−), at 20 μM; Exp. 1, normalized reduction in p-RPS6/RPS6 ratio (mTOR; Exp. 1, at 10 μM, In-Cell Western): ~65% (−), at 10 μM;; Exp. 3, normalized reduction in p-RPS6/RPS6 ratio (mTOR; Exp. 3, In-Cell Western): ~53% (−), at 20 μM; Exp. 3, normalized reduction in p-RPS6/RPS6 ratio (mTOR; Exp. 3, at 5 μM, In-Cell Western): ~48% (−), at 5 μM;; Exp. 3, normalized reduction in p-RPS6/RPS6 ratio (mTOR; Exp. 3, at 10 μM, In-Cell Western): ~45% (−), at 10 μM;; mTOR inhibition (p-RPS6/RPS6), qualitative (mTOR; In-Cell Western): mTOR-inhibiting activities; also recorded: consistently reduced the ratios
7 | COC(=O)CCc1sc2c(c1[N+](=O)[O-])NC(=O)CCC2 [O20] | 0.73% ± 0.25%, | 1 | 1 | 1 | 1 | 0 | 0 | significantly attenuate | YES | 0.7%±0.3% | 1st, YES; | YES; | FOXO3-dependency for H2O2-resistance, at 10 uM - with H2O2, 2nd experiment (FOXO3; 10 uM, experiment 2 (2nd), with H2O2): 2nd, YES.; FOXO3-dependency for H2O2-resistance, at 10 uM (experiment 3) - with & without H2O2 (FOXO3; 10 uM): YES; FOXO3-dependency for H2O2-resistance (experiment 3) (FOXO3; [1]): YES; FOXO3-dependency for H2O2-resistance, 2nd experiment (FOXO3; 10 uM, with H2O2, FOXO3 knockdown in WI-38 cells, YES = resistance reduced by at least 50%, partial = 25% to 50%): YES.; Assay 16: FOXO3-dependency for H2O2-resistance (FOXO3; 10 uM, YES/NO): YES; Requirement of FOXO3 to promote H2O2-resistance (FOXO3): required FOXO3; NRF2-dependency for H2O2-resistance, at 10 uM - with H2O2, 2nd experiment (NRF2): 2nd, YES.; NRF2-dependency for H2O2-resistance, at 10 uM (experiment 3) - with & without H2O2 (NRF2): YES; NRF2-dependency for H2O2-resistance (experiment 3) (NRF2): YES; NRF2-dependency for H2O2-resistance, 2nd experiment (NRF2): YES.; Assay 17: NRF2-dependency for H2O2-resistance (NRF2): YES; Reduction of H2O2-resistance capacity upon NRF2 knockdown, on average (NRF2; 3 of 3 experiments): ~90%
8 | COc1ccc(C(=O)/C=C/c2cccc(Cl)c2)c(OC)c1 [Gr-4C] | 0.47% ± 0.20%, | 0 | 0 | 0 | 0 | 0 | 0 |  |  |  |  |  | 
9 | COc1ccc(C(=O)/C=C/c2ccc(F)cc2)c(OC)c1 [Gr-4A] | 0.39% ± 0.14%, | 0 | 0 | 0 | 0 | 0 | 0 |  |  |  |  |  | 
